“And” between values parts separate entries of the source, which are not always exact repeats. Equal values may be shown once. Toxic doses and inconclusive results are not listed. Rule as the data show it: active = T/C of 150% or more; inactive = T/C below 125%. Square brackets hold non-standard residues; d marks the D form. Peptide text beside a SMILES is read from it. * marks the point of attachment. ξ: configuration not given here. Cbz = O=C(OCc1ccccc1)*; ξT = CC(O)C(N)C(=O)O
Test system: L1210 leukemia ip in BDF1 mice, survival T/C
Experiment: NCI In Vivo Anticancer Drug Screen. Data for tumor model L1210 Leukemia (intraperitoneal) in B6D2F1 (BDF1) mice
Settings: endpoint: mean survival time, higher = longer survival
Outline: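 Transplanted-tumor mice were given test agent; controls received vehicle only. Survival readings from the two groups were divided (treated over control).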

[1] = dose: 100.0 mg/kg/injection, schedule: Q01DX001 (ip), vehicle: Klucel (hydroxypropylcellulose) (HPC)
[2] = dose: 200.0 mg/kg/injection, schedule: Q01DX001 (ip), vehicle: Klucel (hydroxypropylcellulose) (HPC)
[3] = dose: 400.0 mg/kg/injection, schedule: Q01DX001 (ip), vehicle: Klucel (hydroxypropylcellulose) (HPC)
[4] = dose: 100.0 mg/kg/injection, schedule: Q01DX001 (ip), vehicle: carboxymethylcellulose (CMC)
[5] = dose: 200.0 mg/kg/injection, schedule: Q01DX001 (ip), vehicle: carboxymethylcellulose (CMC)
[6] = dose: 100.0 mg/kg/injection, schedule: Q01DX009 (ip), vehicle: Klucel (hydroxypropylcellulose) (HPC)
[7] = dose: 100.0 mg/kg/injection, schedule: Q04DX003 (ip), vehicle: Klucel (hydroxypropylcellulose) (HPC)
[8] = dose: 200.0 mg/kg/injection, schedule: Q04DX003 (ip), vehicle: Klucel (hydroxypropylcellulose) (HPC)
[9] = dose: 400.0 mg/kg/injection, schedule: Q01DX009 (ip), vehicle: Klucel (hydroxypropylcellulose) (HPC)
[10] = dose: 400.0 mg/kg/injection, schedule: Q04DX003 (ip), vehicle: Klucel (hydroxypropylcellulose) (HPC)
[11] = dose: 100.0 mg/kg/injection, schedule: Q04DX003 (ip), vehicle: saline with Tween-80
[12] = dose: 200.0 mg/kg/injection, schedule: Q04DX003 (ip), vehicle: saline with Tween-80
[13] = dose: 400.0 mg/kg/injection, schedule: Q04DX003 (ip), vehicle: saline with Tween-80
[14] = dose: 200.0 mg/kg/injection, schedule: Q01DX009 (ip), vehicle: Klucel (hydroxypropylcellulose) (HPC)
[15] = dose: 100.0 mg/kg/injection, schedule: Q04DX003 (ip), vehicle: saline
[16] = dose: 200.0 mg/kg/injection, schedule: Q04DX003 (ip), vehicle: saline
[17] = dose: 100.0 mg/kg/injection, schedule: Q01DX001 (ip), vehicle: saline with Tween-80
[18] = dose: 200.0 mg/kg/injection, schedule: Q01DX001 (ip), vehicle: saline with Tween-80

Measured: T/C

CC(C)(C)c1cc(/C=C/C(=O)O)cc(C(C)(C)C)c1O
inactive: [1] 107 % of control | [2] 96 % of control | [3] 90 % of control

CC[N+](C)(C)CCCOC(=O)C1C2CC3CC(C2)CC1C3 (stereo not given)
inactive: dose: 25.0 mg/kg/injection, schedule: Q04DX002 (ip), vehicle: saline 88 % of control | dose: 50.0 mg/kg/injection, schedule: Q04DX002 (ip), vehicle: saline 98 % of control

CN1CC(C)(C)C(O)c2ccccc21 (stereo not given)
inactive: dose: 25.0 mg/kg/injection, schedule: Q04DX002 (ip), vehicle: other 100 % of control | dose: 50.0 mg/kg/injection, schedule: Q04DX002 (ip), vehicle: other 90 % of control | dose: 100.0 mg/kg/injection, schedule: Q04DX002 (ip), vehicle: other 107 % of control

NC(=S)N/N=C/c1nccn1Cc1ccccc1
inactive: [1] 104 % of control | dose: 100.0 mg/kg/injection, schedule: Q01DX001 (ip), vehicle: other 101 % of control | [2] 101 % of control | dose: 200.0 mg/kg/injection, schedule: Q01DX001 (ip), vehicle: other 96 % of control | [3] 104 % of control

c1ccc(NCc2csc3ccccc23)cc1
inactive: [4] 98 % of control | [5] 88 % of control | dose: 400.0 mg/kg/injection, schedule: Q01DX001 (ip), vehicle: carboxymethylcellulose (CMC) 98 % of control

CN1CCN(Cc2c(O)ccc3c4c(c(=O)oc23)CCCC4)CC1
inactive: [4] 98 % of control | [5] 93 % of control

O=C1OCCN1C(=O)c1ccc(Cl)c(Cl)c1
inactive: dose: 25.0 mg/kg/injection, schedule: Q01DX007 (ip), vehicle: Klucel (hydroxypropylcellulose) (HPC) 97 % of control | dose: 50.0 mg/kg/injection, schedule: Q01DX007 (ip), vehicle: Klucel (hydroxypropylcellulose) (HPC) 95 % of control | [1] 100 % of control | dose: 100.0 mg/kg/injection, schedule: Q01DX007 (ip), vehicle: Klucel (hydroxypropylcellulose) (HPC) 100 % of control | [6] 94 % of control | [7] 95 % of control | [2] 94 % of control | [8] 100 % of control | [3] 96 % of control | [9] 87 % of control | [10] 100 % of control

CCOC(=O)c1ccc(NC(=O)CS)cc1
inactive: [11] 89 % of control | [12] 94 % of control | [13] 97 % of control

CNC(=O)Nc1ccc(OC)cc1Cl
inactive: [6] 98 % of control and 87 % of control | [14] 98 % of control | [9] 95 % of control and 90 % of control

CC1(O)C=CCC1 (stereo not given)
inactive: dose: 75.0 mg/kg/injection, schedule: Q01DX001 (ip), vehicle: carboxymethylcellulose (CMC) 104 % of control | dose: 150.0 mg/kg/injection, schedule: Q01DX001 (ip), vehicle: carboxymethylcellulose (CMC) 102 % of control

CCCCC(CC)C1OC(=O)C(C)O1 (stereo not given)
inactive: [6] 100 % of control | [7] 102 % of control | [14] 104 % of control | [8] 100 % of control | [9] 105 % of control | [10] 102 % of control

CCOC(=O)/C(=C\c1ccccn1)C(C)=O
inactive: dose: 25.0 mg/kg/injection, schedule: Q04DX003 (ip), vehicle: saline 102 % of control | dose: 50.0 mg/kg/injection, schedule: Q04DX003 (ip), vehicle: saline 102 % of control | [15] 102 % of control

CN(C)CCc1nn[nH]n1
inactive: [15] 102 % of control | [16] 97 % of control | dose: 400.0 mg/kg/injection, schedule: Q04DX003 (ip), vehicle: saline 105 % of control

O=C(NCc1ccccc1)C1C2C=CC(C2)C1C(=O)NCc1ccccc1 (stereo not given)
inactive: [11] 96 % of control | [12] 91 % of control | [13] 91 % of control

Cc1ccc(NC(=O)Nc2ccccc2)cc1Cl
inactive: dose: 100.0 mg/kg/injection, schedule: Q01DX009 (sc), vehicle: olive oil, sesame oil, peanut oil 100 % of control | dose: 100.0 mg/kg/injection, schedule: Q04DX003 (sc), vehicle: olive oil, sesame oil, peanut oil 100 % of control | dose: 200.0 mg/kg/injection, schedule: Q01DX009 (sc), vehicle: olive oil, sesame oil, peanut oil 96 % of control | dose: 200.0 mg/kg/injection, schedule: Q04DX003 (sc), vehicle: olive oil, sesame oil, peanut oil 99 % of control | dose: 400.0 mg/kg/injection, schedule: Q01DX009 (sc), vehicle: olive oil, sesame oil, peanut oil 91 % of control | dose: 400.0 mg/kg/injection, schedule: Q04DX003 (sc), vehicle: olive oil, sesame oil, peanut oil 100 % of control

Cc1ccc(-n2cccc2)cc1
inactive: dose: 50.0 mg/kg/injection, schedule: Q04DX002 (ip), vehicle: Klucel (hydroxypropylcellulose) (HPC) 90 % of control | dose: 100.0 mg/kg/injection, schedule: Q04DX002 (ip), vehicle: Klucel (hydroxypropylcellulose) (HPC) 93 % of control and 90 % of control | dose: 200.0 mg/kg/injection, schedule: Q04DX002 (ip), vehicle: Klucel (hydroxypropylcellulose) (HPC) 90 % of control | dose: 400.0 mg/kg/injection, schedule: Q04DX002 (ip), vehicle: Klucel (hydroxypropylcellulose) (HPC) 106 % of control

O=S(=O)(O)c1ccc(CCCCCCCCCl)cc1
inactive: dose: 100.0 mg/kg/injection, schedule: Q04DX002 (ip), vehicle: saline 87 % of control | dose: 200.0 mg/kg/injection, schedule: Q04DX002 (ip), vehicle: saline 93 % of control

COC(=O)C(NC(=O)CNC(=O)OCc1ccccc1)C(C)O (stereo not drawn) (Cbz-Gly-[ξT]-OMe)
inactive: [11] 98 % of control | [12] 96 % of control | [13] 93 % of control

CC12CCC(CC1)C(O)C2 (stereo not given)
inactive: [17] 104 % of control | [11] 97 % of control | [18] 101 % of control | [12] 101 % of control | dose: 400.0 mg/kg/injection, schedule: Q01DX001 (ip), vehicle: saline with Tween-80 98 % of control | [13] 87 % of control

CCOC(=O)C1C2OC(=O)C(C(=O)C2CN(CCCl)CCCl)C1c1ccc(OC(C)=O)cc1 (stereo not given)
inactive: dose: 50.0 mg/kg/injection, schedule: Q04DX003 (ip), vehicle: Klucel (hydroxypropylcellulose) (HPC) 93 % of control | [7] 101 % of control | [8] 103 % of control | [10] 97 % of control

CN1C(CCl)Nc2cc(Cl)c(S(N)(=O)=O)cc2S1(=O)=O (stereo not given)
inactive: dose: 100.0 mg/kg/injection, schedule: Q01DX001 (ip), vehicle: saline 95 % of control | dose: 200.0 mg/kg/injection, schedule: Q01DX001 (ip), vehicle: saline 90 % of control | dose: 400.0 mg/kg/injection, schedule: Q01DX001 (ip), vehicle: saline 96 % of control

Oc1ccc(Nc2ncnc3cc(Cl)ccc23)cc1CN(c1ccccc1)c1ccccc1
inactive: [15] 102 % of control | [16] 89 % of control

Nc1nc(=O)n(CCCOc2ccc(NC(=O)Nc3cccc(S(=O)(=O)F)c3)cc2)cc1-c1ccc(Cl)c(Cl)c1
inactive: dose: 50.0 mg/kg/injection, schedule: Q01DX001 (ip), vehicle: saline with Tween-80 98 % of control | [17] 98 % of control | [18] 95 % of control

NCCCC(=O)NCCCCCCCCCCNC(=O)CCCN
inactive: dose: 3.0 mg/kg/injection, schedule: Q01DX012 (ip), vehicle: saline 105 % of control | dose: 10.0 mg/kg/injection, schedule: Q01DX012 (ip), vehicle: saline 108 % of control | dose: 30.0 mg/kg/injection, schedule: Q01DX012 (ip), vehicle: saline 103 % of control

O=C(OCC(OC(=O)c1ccccc1)C1OCOC2COCOC21)c1ccccc1 (stereo not given)
inactive: [1] 101 % of control | [2] 101 % of control | [3] 97 % of control

C/C=C(\C)C#N
inactive: dose: 22.0 mg/kg/injection, schedule: Q01DX Z (ip), vehicle: saline 102 % of control | dose: 33.0 mg/kg/injection, schedule: Q01DX Z (ip), vehicle: saline 93 % of control

NCCCCNc1ncnc2c1ncn2C1OC(CO)C(O)C1O (stereo not given)
inactive: dose: 100.0 mg/kg/injection, schedule: Q01DX005 (ip), vehicle: saline 104 % of control | dose: 200.0 mg/kg/injection, schedule: Q01DX005 (ip), vehicle: saline 116 % of control

Reference: PubChem BioAssay AID248 (DTP/NCI, 2004)
